The source of these data is publication PMC12378631, “Novel macrocyclic peptidomimetics targeting the insulin-regulated aminopeptidase (IRAP): design, synthesis and evaluation” (RSC Medicinal Chemistry, 2025).

For data set [1], the target named is insulin-regulated aminopeptidase (IRAP) (Homo sapiens, UniProt Q9UIQ6). The settings on record: for IC50 higher than compound 37: compared with compound 37.
The subject of data set [2] is rodent models of cognitive impairment. Also on record: method as in PMID 10234025, PMID 11707427, PMID 3252173, PMID 14980384. The conditions noted are these: cited from earlier work.
Data set [3] has as its system dendritic spine density in the hippocampus. On the set-up: method as in PMID 26769413. The settings on record: cited from earlier work.
For data set [4] the following is noted: cited from earlier work.

Broadly, the IC50 is the midpoint of a concentration-inhibition curve. A low value points to greater potency.

insulin-regulated aminopeptidase (IRAP), sequence (Q9UIQ6 whole entry): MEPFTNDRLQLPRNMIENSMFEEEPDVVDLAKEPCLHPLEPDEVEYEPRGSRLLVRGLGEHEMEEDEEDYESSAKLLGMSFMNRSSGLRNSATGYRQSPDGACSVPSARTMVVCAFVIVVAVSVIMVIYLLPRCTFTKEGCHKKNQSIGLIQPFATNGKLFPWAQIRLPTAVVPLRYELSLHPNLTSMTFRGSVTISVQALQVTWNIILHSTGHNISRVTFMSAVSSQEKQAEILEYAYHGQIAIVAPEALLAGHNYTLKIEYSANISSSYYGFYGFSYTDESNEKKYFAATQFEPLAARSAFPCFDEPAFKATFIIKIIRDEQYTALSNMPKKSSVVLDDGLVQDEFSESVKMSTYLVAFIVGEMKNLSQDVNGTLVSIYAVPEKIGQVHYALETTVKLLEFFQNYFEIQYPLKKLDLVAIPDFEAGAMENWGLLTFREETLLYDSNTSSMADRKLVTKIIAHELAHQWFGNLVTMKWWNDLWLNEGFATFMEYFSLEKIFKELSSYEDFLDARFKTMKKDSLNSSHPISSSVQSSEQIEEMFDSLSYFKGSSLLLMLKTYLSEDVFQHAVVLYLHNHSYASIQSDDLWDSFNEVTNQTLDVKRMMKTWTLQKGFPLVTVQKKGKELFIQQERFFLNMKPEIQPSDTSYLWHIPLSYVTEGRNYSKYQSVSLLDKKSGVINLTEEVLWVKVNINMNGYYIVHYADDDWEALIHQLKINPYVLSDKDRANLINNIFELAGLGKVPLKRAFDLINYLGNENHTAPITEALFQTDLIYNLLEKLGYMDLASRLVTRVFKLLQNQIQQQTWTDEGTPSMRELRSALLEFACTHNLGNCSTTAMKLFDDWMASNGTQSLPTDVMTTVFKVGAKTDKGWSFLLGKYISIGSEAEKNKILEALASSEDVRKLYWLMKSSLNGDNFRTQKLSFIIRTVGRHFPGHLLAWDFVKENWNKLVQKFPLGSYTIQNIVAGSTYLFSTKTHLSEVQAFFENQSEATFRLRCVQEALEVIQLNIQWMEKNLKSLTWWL

`N[C@H]1CCSSC[C@@H](C(=O)NCc2cccc(C(=O)O)c2)NC(=O)C[C@H](Cc2ccc(O)cc2)NC1=O` [Compound 38]: in data set [1], the 50% inhibitory concentration (IC50) was found to be 906 nM and the “IC50 higher than compound 37” value amounted to 14 fold.

Val–Tyr–Ile–His–Pro–Phe [Ang IV]: the “performance in rodent models of cognitive impairment” value in data set [2] is “improves performance in rodent models of cognitive impairment”. For `N[C@H]1CCSSC[C@@H](C(=O)NCc2ccc(C(=O)O)cc2)NC(=O)C[C@H](Cc2ccc(O)cc2)NC1=O` [Compound 39], in data set [1], the IC50 worked out at 2950 nM and the “IC50 higher than compound 37” value amounted to 46 fold. For `N[C@H]1CCSSC[C@@H](C(=O)NCc2ccccc2CC(=O)O)NC(=O)C[C@H](Cc2ccc(O)cc2)NC1=O` [HA08], the “dendritic spine density in the hippocampus” value in data set [3] is reported as “increase dendritic spine density in the hippocampus”. In data set [4], the “susceptibility to proteolytic degradation in vivo” value is “susceptible to proteolytic degradation in vivo”.
